Assay results: ChEMBL document CHEMBL1138419 (Bioorg Med Chem Lett, 2007)
Values after ≈ are worked out from the molar mass of the structure shown.

How the values were obtained:
[1] = molecular target: cGMP-specific 3',5'-cyclic phosphodiesterase (Bos taurus, UniProt Q28156); experiment: Inhibition of bovine PDE5 after 24 hrs by HTRF
[2] = Aqueous solubility in PBS at pH 7.4; assay type: physicochemical

Row | Structure (SMILES) | IC50 [1] | solubility [2]
1 | COc1ccc(N2CC(=O)N3[C@H](c4ccc5c(c4)OCO5)c4[nH]c5ccccc5c4C[C@@H]3C2=O)cc1 | 16 nM | 
2 | O=C1[C@H]2Cc3c([nH]c4ccccc34)[C@@H](c3ccc4c(c3)OCO4)N2C(=O)CN1c1cccs1 | 57 nM | 
3 | O=C1[C@H]2Cc3c([nH]c4ccccc34)[C@@H](c3ccc4c(c3)OCO4)N2C(=O)CN1c1ccc([N+](=O)[O-])cc1 | 122 nM | 
4 | O=C1[C@H]2Cc3c([nH]c4ccccc34)[C@@H](c3ccc4c(c3)OCO4)N2C(=O)CN1c1ccc(C(F)(F)F)cc1 | 377 nM | 
5 | CCCCc1ccc(N2CC(=O)N3[C@H](c4ccc5c(c4)OCO5)c4[nH]c5ccccc5c4C[C@@H]3C2=O)cc1 | 152 nM | 
6 | O=C1[C@H]2Cc3c([nH]c4ccccc34)[C@@H](c3ccc4c(c3)OCO4)N2C(=O)CN1c1cncnc1 | 53 nM | 25 µM (≈ 11.3 µg/mL)
7 | CN1CC(=O)N2[C@H](c3ccc4c(c3)OCO4)c3[nH]c4ccccc4c3C[C@@H]2C1=O |  | 9.7 µM (≈ 3.78 µg/mL)

Second part, the compound after the results:

Row | IC50 [1] | solubility [2] | Structure (SMILES)
8 | 91 nM | 2.4 µM (≈ 1.08 µg/mL) | O=C1[C@H]2Cc3c([nH]c4ccccc34)[C@@H](c3ccc4c(c3)OCO4)N2C(=O)CN1c1ccccc1
9 | 18 nM |  | O=C1[C@H]2Cc3c([nH]c4ccccc34)[C@@H](c3ccc4c(c3)OCO4)N2C(=O)CN1c1ccsc1
10 | 141 nM |  | O=C1[C@H]2Cc3c([nH]c4ccccc34)[C@@H](c3ccc4c(c3)OCO4)N2C(=O)CN1c1cccc(Cl)c1
11 | 28 nM | 33 µM (≈ 14.9 µg/mL) | O=C1[C@H]2Cc3c([nH]c4ccccc34)[C@@H](c3ccc4c(c3)OCO4)N2C(=O)CN1c1cccnc1
12 | 68 nM |  | Cc1cccc(N2CC(=O)N3[C@H](c4ccc5c(c4)OCO5)c4[nH]c5ccccc5c4C[C@@H]3C2=O)c1
13 | 134 nM |  | O=C1[C@H]2Cc3c([nH]c4ccccc34)[C@@H](c3ccc4c(c3)OCO4)N2C(=O)CN1c1ccc(Cl)cc1
